Laboratory results as given in BigSolDB 2.1.

CC(C)(C)C(=O)C(Oc1ccc(Cl)cc1)n1cncn1 (stereo not given)
solubility (mole fraction)
Details	288.15 K	293.15 K	298.15 K	303.15 K	308.15 K	313.15 K	318.15 K	323.15 K	328.15 K	333.15 K
in acetonitrile	0.011	0.0132	0.0162	0.0196	0.0238	0.0285	0.034	0.0407	0.0479	0.057
in cyclohexane	0.000445	0.00143	0.00382	0.00873	0.0178	0.0315	0.0489	0.0692	0.0869	0.0986
in n-heptane	0.00129	0.00204	0.00321	0.00483	0.00737	0.0111	0.0164	0.0238	0.034	0.0491
in n-hexane	0.000262	0.000539	0.00104	0.00197	0.0035	0.00592	0.00984	0.0156	0.0233	0.0354
in p-xylene	0.0631	0.0846	0.112	0.147	0.188	0.239	0.299	0.372	0.456	0.553
in toluene	0.0916	0.119	0.154	0.192	0.235	0.282	0.333	0.381	0.431	0.475
